The IC50 is the concentration that gives 50% inhibition.

Each structure is given as a SMILES string. Active and inactive are the calls of the source. No cut-off for these calls is given here.

For test [1], the target named is Transient receptor potential cation channel subfamily V member 1 (Rattus norvegicus) (UniProt O35433). Briefly: Inhibition of calcium influx evoked by capsaicin in rat TRPV1 expressing cells by fluorescence assay. The format is functional, cell-based.
For test [2], the target named is Transient receptor potential cation channel subfamily V member 1 (Homo sapiens, UniProt Q8NER1). Briefly: Inhibition of calcium influx evoked by capsaicin in human TRPV1 expressing cells by fluorescence assay. The format is functional.
Chain of Transient receptor potential cation channel subfamily V member 1 (Q8NER1 whole entry): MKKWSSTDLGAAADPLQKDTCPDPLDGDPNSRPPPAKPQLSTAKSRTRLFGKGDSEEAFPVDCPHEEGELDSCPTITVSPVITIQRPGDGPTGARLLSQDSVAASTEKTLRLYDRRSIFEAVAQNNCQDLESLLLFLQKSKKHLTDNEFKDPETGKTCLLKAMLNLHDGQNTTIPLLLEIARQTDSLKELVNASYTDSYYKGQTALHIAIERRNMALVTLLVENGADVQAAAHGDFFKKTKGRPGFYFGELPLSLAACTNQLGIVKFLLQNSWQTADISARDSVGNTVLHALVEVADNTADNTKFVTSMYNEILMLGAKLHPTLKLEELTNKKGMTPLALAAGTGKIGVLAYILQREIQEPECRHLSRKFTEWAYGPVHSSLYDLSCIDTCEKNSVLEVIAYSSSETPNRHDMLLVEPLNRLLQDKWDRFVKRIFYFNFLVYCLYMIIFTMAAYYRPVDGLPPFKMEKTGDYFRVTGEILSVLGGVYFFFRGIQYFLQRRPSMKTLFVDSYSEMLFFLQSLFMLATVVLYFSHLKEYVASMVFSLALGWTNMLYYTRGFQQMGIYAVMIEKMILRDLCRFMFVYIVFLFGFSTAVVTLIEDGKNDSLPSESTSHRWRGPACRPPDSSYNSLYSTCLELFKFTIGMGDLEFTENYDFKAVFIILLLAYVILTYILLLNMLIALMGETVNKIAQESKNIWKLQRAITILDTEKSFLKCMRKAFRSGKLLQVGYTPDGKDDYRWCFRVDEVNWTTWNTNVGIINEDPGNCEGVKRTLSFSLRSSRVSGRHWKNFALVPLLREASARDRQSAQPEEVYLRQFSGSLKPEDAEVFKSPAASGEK

Chain of Transient receptor potential cation channel subfamily V member 1 (Rattus norvegicus) (O35433 whole entry): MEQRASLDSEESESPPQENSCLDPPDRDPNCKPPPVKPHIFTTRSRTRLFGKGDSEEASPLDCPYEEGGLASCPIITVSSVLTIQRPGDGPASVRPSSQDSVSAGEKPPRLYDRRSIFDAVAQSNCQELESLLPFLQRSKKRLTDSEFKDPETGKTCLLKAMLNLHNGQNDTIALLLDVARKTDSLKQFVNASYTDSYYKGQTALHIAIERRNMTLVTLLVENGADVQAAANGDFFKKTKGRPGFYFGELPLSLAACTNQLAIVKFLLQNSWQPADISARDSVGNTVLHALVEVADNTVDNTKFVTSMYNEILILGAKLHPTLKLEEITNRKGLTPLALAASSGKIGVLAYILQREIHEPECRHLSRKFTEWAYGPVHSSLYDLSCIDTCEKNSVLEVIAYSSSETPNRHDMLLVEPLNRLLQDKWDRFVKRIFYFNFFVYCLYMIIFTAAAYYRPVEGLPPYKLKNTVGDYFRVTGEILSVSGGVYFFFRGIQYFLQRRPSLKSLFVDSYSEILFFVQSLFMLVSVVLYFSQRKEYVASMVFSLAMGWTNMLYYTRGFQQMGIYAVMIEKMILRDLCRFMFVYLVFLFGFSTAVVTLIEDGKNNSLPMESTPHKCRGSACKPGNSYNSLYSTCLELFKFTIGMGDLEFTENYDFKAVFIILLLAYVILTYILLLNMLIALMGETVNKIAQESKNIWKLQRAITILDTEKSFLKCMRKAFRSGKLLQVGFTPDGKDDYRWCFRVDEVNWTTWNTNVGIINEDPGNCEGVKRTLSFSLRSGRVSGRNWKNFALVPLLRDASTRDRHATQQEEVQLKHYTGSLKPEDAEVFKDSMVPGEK

In the case of `CC(C)(C)c1nc2nc(S)nc(O)c2cc1-c1ccc(Cl)cc1`, the result in test [1] and in test [2] was inactive.

On to `Cc1nc2cc(C(C)C)c(-c3ccc(Cl)c(OCCN(C)C)c3)cc2c(=O)[nH]1`, for which the concentration for half-maximal inhibition (IC50) in test [2] turned out to be 487 nM.

For the compound `CC(C)c1cc2nc(N)[nH]c(=O)c2cc1-c1ccc(Cl)cc1`, the IC50 in test [2] amounted to 133 nM.

For the origin of these results see ChEMBL document CHEMBL1147725, “Identification and biological characterization of 6-aryl-7-isopropylquinazolinones as novel TRPV1 antagonists that are effective in models of chronic pain” (J Med Chem, 2006).
